Assay [1] has as its target T1, Dual specificity mitogen-activated protein kinase kinase 6 (Homo sapiens, UniProt P52564).
T1 sequence (P52564 whole entry): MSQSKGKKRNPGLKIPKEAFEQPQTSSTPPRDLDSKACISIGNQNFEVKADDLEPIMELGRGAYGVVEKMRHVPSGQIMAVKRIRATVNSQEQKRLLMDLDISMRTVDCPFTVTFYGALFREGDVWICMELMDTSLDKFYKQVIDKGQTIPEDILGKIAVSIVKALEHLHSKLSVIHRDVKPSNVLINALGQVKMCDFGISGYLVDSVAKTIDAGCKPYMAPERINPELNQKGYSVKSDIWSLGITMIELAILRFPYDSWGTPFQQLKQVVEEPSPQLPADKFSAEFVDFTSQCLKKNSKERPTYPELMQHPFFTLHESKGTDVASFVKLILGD
Nature of the assay: Inhibition of MEK6 (unknown origin).

Assay [2] is filed under the species Homo sapiens. Nature of the assay: Selectivity ratio of IC50 for MEK3 (unknown origin) to IC50 for MEK6 (unknown origin).
Assay [3] is filed under the species Homo sapiens. Put plainly: Selectivity ratio of IC50 for MEK2 (unknown origin) to IC50 for MEK6 (unknown origin).
Assay [4] is filed under the species Homo sapiens. Put plainly: Selectivity ratio of IC50 for MEK1 (unknown origin) to IC50 for MEK6 (unknown origin).
For assay [5], the species on record is Homo sapiens. Nature of the assay: Selectivity ratio of IC50 for MEK4 (unknown origin) to IC50 for MEK6 (unknown origin).
For assay [6], the target named is T2, Dual specificity mitogen-activated protein kinase kinase 4 (Homo sapiens) (UniProt P45985).
T2 sequence (whole entry): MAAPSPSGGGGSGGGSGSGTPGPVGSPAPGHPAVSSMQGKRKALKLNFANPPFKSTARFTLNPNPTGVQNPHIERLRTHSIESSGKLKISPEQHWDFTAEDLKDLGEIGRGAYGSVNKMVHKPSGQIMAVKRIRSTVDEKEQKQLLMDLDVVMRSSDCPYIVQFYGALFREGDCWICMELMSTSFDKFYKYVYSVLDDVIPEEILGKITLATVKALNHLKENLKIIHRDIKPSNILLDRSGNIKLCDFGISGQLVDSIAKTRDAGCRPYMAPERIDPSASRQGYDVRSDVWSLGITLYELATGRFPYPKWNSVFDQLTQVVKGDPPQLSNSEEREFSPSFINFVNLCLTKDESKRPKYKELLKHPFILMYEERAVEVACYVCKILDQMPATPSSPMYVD
Nature of the assay: Inhibition of wild type recombinant human MEK4 (S84 to D399 residues) at 1 uM relative to control.

Assay [7] deals with Aurora kinase B (Homo sapiens) (UniProt Q96GD4). Put plainly: Inhibition of N- terminal GST-tagged/His6-tagged human recombinant full length Aurora kinase B ([…]) expressed in baculovirus sf21 cells at 1 uM relative to control.
Chain of Aurora kinase B (Homo sapiens) (Q96GD4 whole entry, the tested form may be a part): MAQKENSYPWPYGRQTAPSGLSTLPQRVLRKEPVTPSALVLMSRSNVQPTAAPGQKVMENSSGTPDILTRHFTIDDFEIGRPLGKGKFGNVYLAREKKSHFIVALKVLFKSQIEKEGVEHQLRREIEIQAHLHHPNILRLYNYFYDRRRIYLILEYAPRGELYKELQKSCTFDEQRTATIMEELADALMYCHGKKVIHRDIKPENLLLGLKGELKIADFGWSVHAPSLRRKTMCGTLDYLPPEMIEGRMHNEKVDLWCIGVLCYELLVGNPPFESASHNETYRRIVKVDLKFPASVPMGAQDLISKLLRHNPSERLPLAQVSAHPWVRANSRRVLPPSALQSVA
Assay [8] deals with Leucine-rich repeat serine/threonine-protein kinase 2 (Homo sapiens) (UniProt Q5S007). Nature of the assay: Inhibition of wild type full length recombinant human LRRK2 (H970 to E2527 residues) at 1 uM relative to control.
Chain of Leucine-rich repeat serine/threonine-protein kinase 2 (Homo sapiens) (Q5S007 whole entry, the tested form may be a part): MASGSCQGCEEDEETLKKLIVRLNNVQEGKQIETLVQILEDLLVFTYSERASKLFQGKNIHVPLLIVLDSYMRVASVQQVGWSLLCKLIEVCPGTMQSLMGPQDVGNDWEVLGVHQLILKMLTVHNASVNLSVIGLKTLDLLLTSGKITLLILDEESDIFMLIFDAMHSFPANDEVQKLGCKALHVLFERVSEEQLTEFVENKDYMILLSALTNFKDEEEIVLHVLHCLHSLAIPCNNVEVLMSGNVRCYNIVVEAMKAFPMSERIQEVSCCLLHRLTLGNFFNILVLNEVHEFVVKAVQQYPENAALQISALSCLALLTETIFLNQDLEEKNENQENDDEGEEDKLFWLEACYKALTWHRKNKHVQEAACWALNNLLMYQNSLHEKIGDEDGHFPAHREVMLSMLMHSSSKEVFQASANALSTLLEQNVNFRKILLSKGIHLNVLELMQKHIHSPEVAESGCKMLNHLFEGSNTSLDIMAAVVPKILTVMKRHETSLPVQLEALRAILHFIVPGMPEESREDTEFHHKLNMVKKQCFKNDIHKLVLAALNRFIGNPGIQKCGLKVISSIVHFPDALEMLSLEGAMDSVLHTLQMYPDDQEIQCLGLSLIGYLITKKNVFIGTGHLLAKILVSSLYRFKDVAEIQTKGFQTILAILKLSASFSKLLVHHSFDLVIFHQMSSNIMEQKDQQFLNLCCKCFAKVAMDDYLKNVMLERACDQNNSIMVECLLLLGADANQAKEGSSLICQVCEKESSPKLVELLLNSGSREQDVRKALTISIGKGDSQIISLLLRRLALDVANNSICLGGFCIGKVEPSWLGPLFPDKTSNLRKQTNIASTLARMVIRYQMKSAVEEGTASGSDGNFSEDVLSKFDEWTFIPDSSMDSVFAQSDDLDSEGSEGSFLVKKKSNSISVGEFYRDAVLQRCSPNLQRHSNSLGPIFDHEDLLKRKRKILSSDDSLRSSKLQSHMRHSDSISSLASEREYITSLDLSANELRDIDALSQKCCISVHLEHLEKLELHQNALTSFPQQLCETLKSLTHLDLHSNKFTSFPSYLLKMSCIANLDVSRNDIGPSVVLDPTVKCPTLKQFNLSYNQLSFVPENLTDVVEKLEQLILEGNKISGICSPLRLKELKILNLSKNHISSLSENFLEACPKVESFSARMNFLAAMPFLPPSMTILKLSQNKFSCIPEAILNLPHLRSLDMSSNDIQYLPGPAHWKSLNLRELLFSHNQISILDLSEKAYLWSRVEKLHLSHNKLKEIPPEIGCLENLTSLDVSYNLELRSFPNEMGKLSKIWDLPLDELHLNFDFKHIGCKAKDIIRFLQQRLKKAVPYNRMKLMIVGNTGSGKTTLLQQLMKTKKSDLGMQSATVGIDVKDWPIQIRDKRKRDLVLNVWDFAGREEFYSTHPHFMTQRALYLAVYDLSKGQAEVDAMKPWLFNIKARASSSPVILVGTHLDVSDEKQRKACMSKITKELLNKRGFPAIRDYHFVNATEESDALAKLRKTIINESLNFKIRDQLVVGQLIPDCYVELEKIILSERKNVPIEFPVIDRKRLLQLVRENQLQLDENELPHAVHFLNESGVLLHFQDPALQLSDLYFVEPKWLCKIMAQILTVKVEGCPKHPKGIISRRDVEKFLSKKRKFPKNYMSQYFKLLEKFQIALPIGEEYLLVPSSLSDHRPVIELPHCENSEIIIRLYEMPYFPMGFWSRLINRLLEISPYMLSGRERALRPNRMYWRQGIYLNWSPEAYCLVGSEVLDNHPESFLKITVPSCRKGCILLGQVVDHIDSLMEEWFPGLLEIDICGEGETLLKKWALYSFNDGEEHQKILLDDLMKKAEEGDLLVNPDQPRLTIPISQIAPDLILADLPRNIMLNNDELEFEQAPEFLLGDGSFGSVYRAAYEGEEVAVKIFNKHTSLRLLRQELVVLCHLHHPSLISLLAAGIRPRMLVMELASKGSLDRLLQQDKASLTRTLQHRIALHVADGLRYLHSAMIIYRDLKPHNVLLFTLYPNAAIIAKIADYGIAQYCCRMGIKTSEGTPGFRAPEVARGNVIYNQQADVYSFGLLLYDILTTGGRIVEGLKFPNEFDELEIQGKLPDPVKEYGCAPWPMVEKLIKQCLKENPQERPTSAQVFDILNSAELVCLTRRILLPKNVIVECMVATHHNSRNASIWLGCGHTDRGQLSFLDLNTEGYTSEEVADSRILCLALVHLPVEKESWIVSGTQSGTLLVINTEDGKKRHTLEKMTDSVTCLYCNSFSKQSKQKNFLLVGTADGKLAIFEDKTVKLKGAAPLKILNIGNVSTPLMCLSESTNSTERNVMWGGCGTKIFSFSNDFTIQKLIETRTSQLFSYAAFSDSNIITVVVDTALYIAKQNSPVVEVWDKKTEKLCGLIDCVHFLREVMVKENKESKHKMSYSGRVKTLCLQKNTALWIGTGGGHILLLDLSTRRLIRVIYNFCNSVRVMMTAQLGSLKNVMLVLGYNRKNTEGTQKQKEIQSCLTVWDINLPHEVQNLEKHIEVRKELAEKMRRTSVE
Assay [9] is filed under the species Homo sapiens. Nature of the assay: Selectivity ratio of IC50 for CDC25B (unknown origin) to IC50 for MEK7 (unknown origin).
The species named for assay [10] is Homo sapiens. Put plainly: Selectivity ratio of IC50 for CDC25A (unknown origin) to IC50 for MEK7 (unknown origin).
The target of assay [11] is T3, Dual specificity mitogen-activated protein kinase kinase 7 (Homo sapiens, UniProt O14733).
T3 sequence (O14733 whole entry): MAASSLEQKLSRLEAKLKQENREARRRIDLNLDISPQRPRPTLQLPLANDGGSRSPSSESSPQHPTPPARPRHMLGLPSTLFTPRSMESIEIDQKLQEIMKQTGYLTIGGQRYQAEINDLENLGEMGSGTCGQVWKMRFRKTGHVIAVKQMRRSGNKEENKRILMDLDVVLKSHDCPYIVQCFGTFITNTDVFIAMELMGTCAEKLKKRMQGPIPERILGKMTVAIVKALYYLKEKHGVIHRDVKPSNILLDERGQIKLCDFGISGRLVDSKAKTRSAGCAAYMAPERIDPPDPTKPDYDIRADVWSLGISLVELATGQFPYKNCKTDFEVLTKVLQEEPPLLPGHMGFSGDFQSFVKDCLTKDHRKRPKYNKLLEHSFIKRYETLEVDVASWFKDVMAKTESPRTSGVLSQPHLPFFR
Put plainly: Inhibition of MEK7 (unknown origin).

Assay [12] is described as follows: Inhibition of HA-tagged MEK7 R283Y/K288V/R292M mutant (unknown origin) expressed in HEK-293T cells after 20 mins in presence of [32P]-ATP. In kind it is cell-based, Homo sapiens.
Assay [13] in a line: Inhibition of flag-tagged MEK4 Q253Y/I258V/R262M mutant (unknown origin) expressed in HEK-293T cells after 20 mins in presence of [32P]-ATP. The class given is cell-based, Homo sapiens.
For assay [14], the species on record is Homo sapiens. Nature of the assay: Selectivity ratio of IC50 for ERK5 (unknown origin) to IC50 for MEK5 (unknown origin).
The species named for assay [15] is Homo sapiens. Put plainly: Selectivity ratio of IC50 for TGFbetaR1 (unknown origin) to IC50 for MEK5 (unknown origin).
The target of assay [16] is T4, Tyrosine-protein kinase JAK3 (Homo sapiens) (UniProt P52333).
T4 sequence (whole entry): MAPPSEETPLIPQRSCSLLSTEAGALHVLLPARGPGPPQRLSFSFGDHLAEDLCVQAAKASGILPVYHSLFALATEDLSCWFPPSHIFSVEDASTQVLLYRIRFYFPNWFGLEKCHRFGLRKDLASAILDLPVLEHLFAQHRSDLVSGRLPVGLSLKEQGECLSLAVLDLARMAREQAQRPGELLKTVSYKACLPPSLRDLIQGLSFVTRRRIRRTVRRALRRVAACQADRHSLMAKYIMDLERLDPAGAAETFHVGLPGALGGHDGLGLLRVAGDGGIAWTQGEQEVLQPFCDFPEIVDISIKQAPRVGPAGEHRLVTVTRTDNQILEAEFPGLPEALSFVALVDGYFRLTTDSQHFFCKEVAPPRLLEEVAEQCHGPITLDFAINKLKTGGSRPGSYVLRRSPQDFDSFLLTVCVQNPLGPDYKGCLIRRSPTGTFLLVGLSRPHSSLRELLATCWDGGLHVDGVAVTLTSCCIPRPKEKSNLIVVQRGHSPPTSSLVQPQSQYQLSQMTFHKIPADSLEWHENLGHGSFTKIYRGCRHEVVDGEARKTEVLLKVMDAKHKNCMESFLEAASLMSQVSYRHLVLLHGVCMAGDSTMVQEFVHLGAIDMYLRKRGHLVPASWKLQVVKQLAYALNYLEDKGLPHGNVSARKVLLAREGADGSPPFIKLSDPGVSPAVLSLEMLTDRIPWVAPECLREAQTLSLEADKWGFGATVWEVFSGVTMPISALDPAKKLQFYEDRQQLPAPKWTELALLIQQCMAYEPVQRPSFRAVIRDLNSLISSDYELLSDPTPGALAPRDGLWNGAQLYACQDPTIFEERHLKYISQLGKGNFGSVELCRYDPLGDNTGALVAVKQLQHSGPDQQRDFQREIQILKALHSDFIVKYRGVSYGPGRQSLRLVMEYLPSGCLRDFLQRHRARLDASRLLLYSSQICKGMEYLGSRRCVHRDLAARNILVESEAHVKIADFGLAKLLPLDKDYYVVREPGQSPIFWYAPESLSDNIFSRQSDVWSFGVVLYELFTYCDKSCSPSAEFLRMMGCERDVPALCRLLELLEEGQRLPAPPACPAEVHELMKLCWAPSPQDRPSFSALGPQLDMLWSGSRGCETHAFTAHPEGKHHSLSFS
Put plainly: Inhibition of recombinant human N-terminal His6-tagged JAK3 (781 to end residues) expressed in baculovirus infected Sf21 cells at 1 uM relative to control.

Bounds are passed on as bounds.

Usually IC50 stands for the concentration that inhibits the measured activity by half. `C=C(CC)C(=O)c1ccc(OCC(=O)O)c(Cl)c1Cl` [ETHACRYNIC ACID] registered an IC50 in [1] of 4.5 µM. The Ratio IC50 in the assay listed under Homo sapiens [2] amounted to 3; in the assay filed under Homo sapiens [3], 9; in the assay listed under Homo sapiens [4], 12; in the assay listed under Homo sapiens [5], 3.

One may read the inhibition as how much of the control response was suppressed. `C=CC(=O)Nc1cccc(-c2n[nH]c3cc(C)ccc23)c1`: the inhibition in assay [6], in assay [7] and in [8] was over 75% in each case.

Take `O=C(O)c1cccc(NC2=CC(=O)c3ccccc3C2=O)c1`: the results for the Ratio IC50 in the assay filed under Homo sapiens [9] and in the assay listed under Homo sapiens [10] were 12 and 17, respectively. Further, in assay [11], the IC50 turned out to be 1.9 µM.

For the compound `COc1ccc2c(Cc3ccc(O[Si](C)(C)C(C)(C)C)cc3)c3[n+](cc2c1OC)CCc1ccccc1-3`, the IC50 amounted to 10 µM in assay [12] and 6 µM in assay [13].

`O=C(O)CCSC1=CC(=O)c2ccccc2C1=O` displayed an IC50 in [11] of 0.23 µM.

With `CN(C)Cc1cccc(N/C(=C2\C(=O)Nc3cc(C(N)=O)ccc32)c2ccccc2)c1`, the Ratio IC50 in the assay filed under Homo sapiens [14] came to 60; in the assay filed under Homo sapiens [15], 580.

Consider `C=CC(=O)Nc1cccc(-c2n[nH]c3ccccc23)c1`, for which the inhibition in assay [16], in assay [6], in assay [7] and in [8] was over 75% throughout.

For the origin of these results see ChEMBL document CHEMBL4725240, “Non-'classical' MEKs: A review of MEK3-7 inhibitors” (Bioorg Med Chem Lett, 2020).
